Test results: patent US10597375B2, “Halogen-substituted heterocyclic compound” (UBE INDUSTRIES, LTD., priority 2012, dated 2020)
pIC50: −log10 of the molar value.

Legend:
human LPA1 receptor = target: T1, human LPA1 receptor (Homo sapiens, UniProt Q92633); assay: Binding test of GTPγS to LPA1 receptor; format: biochemical; settings: membrane fraction of RH 7777 cells expressed with human LPA1 receptor; LPA 100 nM; read-out: IC50: concentration of the test compound which inhibits the binding of LPA1 receptor and [35S]GTPγS by 50%
T1 construct: purchased ChanTest A324; host or cells: RH 7777 cells (recombinant expression; membrane fraction)
Protocol: Binding test of GTPγS to LPA1 receptor
5 μg of the membrane fraction of RH 7777 cells expressed with human LPA1 receptor (A324, ChanTest) was suspended in a reaction buffer (20 mM HEPES, 100 mM NaCl, 10 mM MgCl2, 10 μM GDP, 5 μg saponin, 0.2% BSA, 0.1 nM [^35S]GTPγS (NEG030X, Perkin Elmer), pH 7.4), and the test compound dissolved in DMSO in various concentrations was added. After preincubation at 30° C. for 15 minutes, LPA (L7260, Sigma, the final concentration of 100 nM) was added, and the suspension was incubated at 30° C. for 30 minutes. The membrane fraction was collected onto a glass fiber filter (GF/B, Whatman) by using a cell harvester (M30, Brandel), and washed with a 10 mM phosphate buffer (pH 7.4). The radioactivity of the membrane fraction was measured using a liquid scintillation analyzer (2900TR, Packard) and the concentration of the test compound which inhibits the binding of LPA1 receptor and [^35S]GTPγS by 50%, (1050) was determined by non-linear regression analysis using EXSAS (version 7.6.0, Arm Systex).

[1] = system: A2058 human melanoma cells; assay: Cell migration test (LPA-induced, Chemo-Tx); format: cell-based; settings: LPA 100 nM, 3 hours, read-out: IC50: concentration of the test compound which inhibits the cell migration activity of LPA by 50%
How it was run: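 A2058 cells, serum-starved 24 h, pretreated 15 min at 37° C with compound (0.5% DMSO final). Migration over 3 h at 37° C through fibronectin-coated filters toward 100 nM LPA (final). Migrated cells stained, absorbance at 570 nm; IC50 from non-linear regression.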

[2] = system: LPA-induced histamine release; assay: LPA-induced histamine release test in mouse; format: in vivo; settings: male CD1 mice; oral dose of 10 mg/kg; LPA 300 μg/mouse via tail vein 4 hours after administration; blood 2 minutes after LPA; read-out: efficacy rate (rate of individuals which showed the inhibition rate of 80% or more of plasma histamine)
Protocol: LPA-Induced Histamine Release Test in Mouse
LPA-induced histamine release test in mouse was carried out according to a method by Swaney et al. (The Journal of Pharmacology and Experimental Therapeutics, 336 (2011), pages 693-700). The test compound was suspended in 0.5% methylcellulose solution (133-14255, Wako), and orally administered to male CD1 mice (body weight: 30 to 40 g, supplied by Charles River Laboratories Japan) at a dose of 10 mL/kg. 4 hours after administration, LPA (857130P, Avanti) dissolved in a 0.1% BSA-containing PBS was administered via the tail vein (300 μg/mouse). Immediately, the mouse was anesthetized with isoflurane, and blood was collected via a vein 2 minutes after the administration of LPA. The blood was put into a test tube containing EDTA, and centrifuged at 4° C., 2,000×g, for 10 minutes to obtain the plasma.
The histamine concentration in the plasma was measured by EIA kit (62HTMPEB, Cisbio Bioassays).

T1 sequence (Q92633 whole entry): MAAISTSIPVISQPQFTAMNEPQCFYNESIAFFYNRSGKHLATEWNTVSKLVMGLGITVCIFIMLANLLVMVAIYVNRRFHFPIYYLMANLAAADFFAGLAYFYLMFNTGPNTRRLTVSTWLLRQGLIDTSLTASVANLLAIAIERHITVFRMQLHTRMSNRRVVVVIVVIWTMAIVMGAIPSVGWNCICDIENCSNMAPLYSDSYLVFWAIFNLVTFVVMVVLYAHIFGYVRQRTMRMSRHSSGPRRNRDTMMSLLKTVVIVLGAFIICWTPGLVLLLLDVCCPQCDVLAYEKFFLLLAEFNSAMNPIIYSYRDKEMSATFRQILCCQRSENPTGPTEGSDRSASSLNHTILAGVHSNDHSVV

Molecule `C[C@@H](OC(=O)Nc1cc(F)sc1-c1ccc(-c2ccc(C3(C(=O)O)CC3)cc2)cc1)c1ccccc1` [I-100, (R)-1-[4′-(5-Fluoro-3-{[(1-phenylethoxy)carbonyl]amino}thiophen-2-yl)-[1,1′-biphenyl]-4-yl]cyclopropanecarboxylic acid] has a pIC50 (human LPA1 receptor) of no less than 6.70, a pIC50 [1] of no less than 6.70 and a responders at 10 mg/kg [2] of no less than 50%.
`C[C@@H](OC(=O)Nc1cc(F)sc1-c1ccc(-c2ccc(C3(C(=O)O)CC3)cc2)cc1)c1ccccc1F` [I-104, (R)-1-{4′-[5-Fluoro-3-({[1-(2-fluorophenyl)ethoxy]carbonyl}amino)thiophen-2-yl]-[1,1′-biphenyl]-4-yl}cyclopropanecarboxylic acid] was tested, and the pIC50 (human LPA1 receptor) was no less than 6.70, the pIC50 [1] was no less than 6.70 and the responders at 10 mg/kg [2] was no less than 50%.
For `C[C@@H](OC(=O)Nc1cc(F)sc1-c1ccc(-c2ccc(C3(C(=O)O)CC3)cc2)cc1)c1ccc(F)cc1` [I-112, (R)-1-{4′-[5-Fluoro-3-({[1-(4-fluorophenyl)ethoxy]carbonyl}amino)thiophen-2-yl]-[1,1′-biphenyl]-4-yl}cyclopropanecarboxylic acid], the pIC50 (human LPA1 receptor) was no less than 6.70, the pIC50 [1] was no less than 6.70 and the responders at 10 mg/kg [2] was no less than 50%.
Molecule `C[C@@H](OC(=O)Nc1cc(F)sc1-c1ccc(-c2ccc(C3(C(=O)O)CC3)cc2)cc1)c1ccccc1Cl` [I-122, (R)-1-{4′-[3-({[1-(2-Chlorophenyl)ethoxy]carbonyl}amino)-5-fluorothiophen-2-yl]-[1,1′-biphenyl]-4-yl}cyclopropanecarboxylic acid] has a pIC50 (human LPA1 receptor) of no less than 6.70, a pIC50 [1] of no less than 6.70 and a responders at 10 mg/kg [2] of no less than 50%.
Molecule `C[C@@H](OC(=O)Nc1cc(F)sc1-c1ccc(-c2ccc(C3(C(=O)O)CC3)cc2)cc1)c1ccc(Cl)cc1` [I-126, (R)-1-{4′-[3-({[1-(4-Chlorophenyl)ethoxy]carbonyl}amino)-5-fluorothiophen-2-yl]-[1,1′-biphenyl]-4-yl}cyclopropanecarboxylic acid] has a pIC50 (human LPA1 receptor) of no less than 6.70, a pIC50 [1] of no less than 6.70 and a responders at 10 mg/kg [2] of no less than 50%.
`C[C@@H](OC(=O)Nc1cc(F)sc1-c1ccc(-c2ccc(C3(C(=O)O)CC3)cc2)cc1)c1ccc(F)cc1Cl` [I-152, (R)-1-{4′-[3-({[1-(2-Chloro-4-fluorophenyl)ethoxy]carbonyl}amino)-5-fluorothiophen-2-yl]-[1,1′-biphenyl]-4-yl}cyclopropanecarboxylic acid] gave a pIC50 (human LPA1 receptor) of no less than 6.70, a pIC50 [1] of no less than 6.70 and a responders at 10 mg/kg [2] of no less than 50%.
